# Laboratory results: patent US7259271B2, “Peripherally-selective inhibitors of dopamine-β-hydroxylase and method of their preparation” (Portela & C.A., S.A., priority 2002, dated 2007)
# Tests used:
# [1] = test system: noradrenaline tissue levels; experiment: Noradrenaline tissue levels in heart and brain of mice after oral administration; type: in vivo, mouse; conditions: for recovery of initial noradrenaline tissue levels: mouse heart, at 24 h; for recovery of initial noradrenaline tissue levels / Time of maximum effect (Tmax) for noradrenaline tissue reduction / duration of action in the heart: 100 mg/kg oral; for Time of maximum effect (Tmax) for noradrenaline tissue reduction / dose at which the maximal inhibitory effect was attained: mouse left ventricle; for dose at which the maximal inhibitory effect was attained / noradrenaline levels in left ventricle / noradrenaline tissue levels in the brain parietal cortex: 9 h after oral administration; for duration of action in the heart / noradrenaline levels in left ventricle / noradrenaline tissue levels in the brain parietal cortex: mouse; for duration of action in the heart: time course
# Description: (§1) Male NMRI mice or Wistar rats were obtained from Harlan-lnterfauna (Spain) and were kept 10 and 5 per cage respectively, under controlled environmental conditions (12 h light/dark cycle and room temperature 22±1° C.). Food and tap water were allowed ad libitum and experimentation was performed during daylight hours.
# (§2) At time =0 h, animals were administered with either test compounds at a given dose or vehicle (water) delivered orally via gavage. At 2, 6, 9, 12, 18 and 24 h post dose, the animals were sacrificed by decapitation and heart (left atrium and left ventricle) and brain (frontal and parietal cortex) were isolated, weighed and stored in a volume of 0.2 M perchloric acid for 12 h at 4° C. in the dark. Post incubation, the resulting supernatants were collected by centrifuge filtration of incubates ([…]/10 min/˜5000 rpm, 4° C.). Supernatants were stored frozen at −80° C. until analysis. Quantification of dopamine and noradrenaline in supernatants was performed by high pressure liquid chromatography with electrochemical detection.
# human DβH = target: T1, human DβH (Homo sapiens, UniProt P09172); experiment: DβH activity (β-hydroxylation of dopamine to noradrenaline) in SK-N-SH cells; type: cell-based; conditions: for remaining activity at 5 µM: SK-N-SH, 0.75 h, read-out: DβH activity in SK-N-SH cells, Mean ± SEM; for IC50 values against human DβH activity (in words): concentration-dependent decrease in β-hydroxylation of dopamine; for IC50: read-out: IC50 for inhibition of DβH in SK-N-SH cells
# T1 construct: SK-N-SH cells (ATCC HTB-11), a human neuroblastoma derived cell line, were used as a source of human DβH; host or cells: SK-N-SH cells
# T1 sequence (P09172 1-617): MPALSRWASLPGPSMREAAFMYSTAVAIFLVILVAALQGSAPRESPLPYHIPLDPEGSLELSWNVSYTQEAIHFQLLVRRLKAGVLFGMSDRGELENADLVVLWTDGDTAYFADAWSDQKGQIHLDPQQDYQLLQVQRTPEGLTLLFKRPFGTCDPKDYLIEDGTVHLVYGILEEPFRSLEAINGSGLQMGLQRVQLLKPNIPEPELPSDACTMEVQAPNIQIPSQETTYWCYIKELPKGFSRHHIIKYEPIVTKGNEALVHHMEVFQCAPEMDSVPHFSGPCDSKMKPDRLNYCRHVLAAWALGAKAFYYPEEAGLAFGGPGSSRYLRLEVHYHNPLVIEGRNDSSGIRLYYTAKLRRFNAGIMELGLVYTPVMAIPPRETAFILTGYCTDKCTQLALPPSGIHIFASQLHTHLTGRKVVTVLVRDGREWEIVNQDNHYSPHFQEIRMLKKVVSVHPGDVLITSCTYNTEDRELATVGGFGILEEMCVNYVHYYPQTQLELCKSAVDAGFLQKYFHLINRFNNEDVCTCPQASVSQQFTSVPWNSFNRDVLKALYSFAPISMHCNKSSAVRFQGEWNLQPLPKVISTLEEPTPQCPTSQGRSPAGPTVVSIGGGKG
# Description: SK-N-SH cells (ATCC HTB-11), a human neuroblastoma derived cell line, were used as a source of human DβH. SK-N-SH cells cultured in 24 well plates were preincubated for 20 min in a reaction medium containing 200 mM sodium acetate, 30 mM N-ethylmaleimide, 5 μM copper sulphate, 0.5 mg/ml catalase aqueous solution, 1 mM pargyline, 10 mM sodium fumarate and 20 mM ascorbic acid. […] During preincubation and incubation, the cells were continuously shaken and maintained at 37° C. The reaction was terminated by the addition of 0.2 M perchloric acid. The acidified samples were stored at 4° C. before injection into the high pressure liquid chromatograph for the assay of noradrenaline.
# [2] = test system: noradrenaline tissue levels; experiment: Noradrenaline tissue levels in heart and brain of rats after oral administration; type: in vivo; conditions: rat; for noradrenaline tissue levels in brain parietal cortex and brain frontal cortex: 9 h after oral administration; for dose dependence of effects upon noradrenaline / time of maximum effect upon noradrenaline: oral
# Description: as §1, §2
# [3] = prior art finding; cited from earlier work
remaining activity at 5 µM (human DβH),IC50 values against human DβH activity (in words) (human DβH),IC50 (human DβH),"inhibition of DβH activity (in words) (human DβH; 5 μM, as listed in Table 1)",SMILES,recovery of initial noradrenaline tissue levels [1],Time of maximum effect (Tmax) for noradrenaline tissue reduction [1],dose at which the maximal inhibitory effect was attained [1],duration of action in the heart [1],noradrenaline levels in left ventricle [1],noradrenaline tissue levels in the brain parietal cortex [1],noradrenaline tissue levels in brain parietal cortex and brain frontal cortex [2],dose dependence of effects upon noradrenaline [2],time of maximum effect upon noradrenaline [2],crossing of the blood brain barrier (BBB) [3],"inhibitory effects upon noradrenaline levels in left atrium and left ventricle ([2]; 100 mg/kg oral, 9 h)"
0%,low nM range,36 nM,,"NCc1c[nH]c(=S)n1[C@H]1CCc2c(F)cc(F)cc2C1 [Compound 1, nepicastat, reference compound]",50%,9 h,100 mg/kg,long acting,dose-dependent manner,dose-dependent decrease,marked decrease,dependent on the dose administered,9 h,cross the blood brain barrier,
3.3 ± 0.3%,low nM range,105 nM,markedly inhibit,"Cl.NCCc1c[nH]c(=S)n1[C@H]1COc2c(F)cc(F)cc2C1 [Compound 4, (R)-5-(2-aminoethyl)-1-(6,8-difluorochroman-3-yl)-1,3-dihydroimidazole-2-thione hydrochloride]",50%,9 h,100 mg/kg,long acting,dose-dependent manner,failed to affect,failed to affect,dependent on the dose administered,9 h,,more pronounced than those elicited by 1
